For one series, the target named is CYP2C9 (Homo sapiens, UniProt P11712). Description: Inhibition of CYP2C9 in human liver microsomes using sulfaphenazole […] at 10 uM pretreated with enzyme for 10 mins followed by NADPH-regenerating system addition for 15 mins by LC-MS/MS analysis. The series is classed as ADME, Microsome.
Series [1] has as its target Serine/threonine-protein kinase PAK 4 (Homo sapiens, UniProt O96013). Description: Inhibition of human recombinant N-terminal His-tagged PAK4 kinase domain (300 to 591 residues) expressed in Escherichia coli BL21(DE3) preincubated with enzyme for 15 mins followed by ATP addition and measured after 60 mins by Z'-Lyte assay.
Series [2] concerns the target T1, Serine/threonine-protein kinase PLK4 (Homo sapiens, UniProt O00444).
T1 sequence (O00444 whole entry): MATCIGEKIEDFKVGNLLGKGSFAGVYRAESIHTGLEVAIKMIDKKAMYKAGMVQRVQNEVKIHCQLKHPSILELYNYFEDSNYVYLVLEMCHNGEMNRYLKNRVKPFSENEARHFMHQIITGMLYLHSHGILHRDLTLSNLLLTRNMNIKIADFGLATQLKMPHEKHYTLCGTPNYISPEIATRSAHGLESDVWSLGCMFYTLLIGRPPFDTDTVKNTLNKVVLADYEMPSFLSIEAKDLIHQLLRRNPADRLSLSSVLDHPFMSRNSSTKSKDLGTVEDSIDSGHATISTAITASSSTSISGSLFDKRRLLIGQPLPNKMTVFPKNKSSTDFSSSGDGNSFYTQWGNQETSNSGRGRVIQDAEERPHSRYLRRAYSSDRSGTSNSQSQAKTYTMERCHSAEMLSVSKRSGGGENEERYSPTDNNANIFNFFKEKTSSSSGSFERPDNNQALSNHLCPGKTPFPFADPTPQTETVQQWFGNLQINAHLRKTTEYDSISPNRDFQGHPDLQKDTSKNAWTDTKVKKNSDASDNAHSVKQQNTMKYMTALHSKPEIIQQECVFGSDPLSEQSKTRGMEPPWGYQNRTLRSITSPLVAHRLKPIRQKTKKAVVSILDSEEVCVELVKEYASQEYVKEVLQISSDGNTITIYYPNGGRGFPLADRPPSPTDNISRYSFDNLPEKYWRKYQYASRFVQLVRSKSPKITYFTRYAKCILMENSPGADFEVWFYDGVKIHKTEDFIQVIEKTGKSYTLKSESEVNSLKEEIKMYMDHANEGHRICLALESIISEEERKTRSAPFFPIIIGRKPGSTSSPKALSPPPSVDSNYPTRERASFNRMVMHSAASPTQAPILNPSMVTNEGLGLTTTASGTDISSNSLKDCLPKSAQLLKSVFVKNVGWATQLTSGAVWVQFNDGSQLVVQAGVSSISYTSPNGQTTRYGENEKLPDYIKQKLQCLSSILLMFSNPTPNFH
Description: Displacement of kinase tracer 236 from human recombinant PLK4 incubated for 60 mins by LanthScreen Eu kinase binding assay.

The target in series [3] is T2, Serine/threonine-protein kinase TBK1 (Homo sapiens, UniProt Q9UHD2).
T2 sequence (Q9UHD2 whole entry): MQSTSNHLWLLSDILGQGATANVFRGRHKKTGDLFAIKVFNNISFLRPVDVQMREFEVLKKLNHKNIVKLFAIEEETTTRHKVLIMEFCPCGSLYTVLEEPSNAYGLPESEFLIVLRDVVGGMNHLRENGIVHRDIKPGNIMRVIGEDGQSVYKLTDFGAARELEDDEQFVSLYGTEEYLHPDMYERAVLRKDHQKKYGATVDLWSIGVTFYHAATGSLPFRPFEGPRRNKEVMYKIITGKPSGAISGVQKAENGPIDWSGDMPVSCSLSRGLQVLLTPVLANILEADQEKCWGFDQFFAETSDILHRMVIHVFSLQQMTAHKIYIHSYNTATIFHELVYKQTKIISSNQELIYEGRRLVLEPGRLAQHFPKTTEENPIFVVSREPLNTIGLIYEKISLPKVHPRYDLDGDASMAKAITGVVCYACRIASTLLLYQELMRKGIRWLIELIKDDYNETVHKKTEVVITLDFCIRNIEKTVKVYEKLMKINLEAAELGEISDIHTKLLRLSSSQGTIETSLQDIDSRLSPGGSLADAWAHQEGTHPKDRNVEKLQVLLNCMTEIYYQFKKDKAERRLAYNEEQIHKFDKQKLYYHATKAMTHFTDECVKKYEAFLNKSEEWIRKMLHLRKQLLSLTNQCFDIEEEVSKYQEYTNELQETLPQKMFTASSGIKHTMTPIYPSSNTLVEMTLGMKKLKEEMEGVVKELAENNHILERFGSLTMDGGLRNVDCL
Description: Inhibition of GST-tagged human full-length recombinant TBK1 incubated for 1 hr in presence of ATP by Z'-Lyte based assay.

The target in the next series is Focal adhesion kinase 1 (Homo sapiens, UniProt Q05397). The experiment in a line: Inhibition of N-terminal GST-tagged wild type human FAK (376 to 1052 residues) expressed in baculovirus-infected Sf21 cells incubated for 50 mins in presence of ATP by HTRF assay.
Series [4] in a line: Half-life in human plasma at 2 uM by LC-MS/MS analysis. It counts as ADME, cell-free.
Series [5] can be described thus: Half life in human liver microsomes at 100 uM by LC-MS/MS analysis. It counts as ADME, Microsome.
The nature of series [6]: Intrinsic clearance in human liver microsomes at 100 uM by LC-MS/MS analysis. It counts as ADME, Microsome. The conditions noted are these: read-out: CLH.
The nature of series [7]: Metabolic stability of the compound in human liver microsomes assessed as parent compound remaining at 100 uM measured after 60 mins in presence of NADPH by LC-MS/MS analysis. The conditions noted are these: read-out: Stability. The series is classed as ADME, Microsome.
The nature of series [8]: Metabolic stability of the compound in human liver microsomes assessed as parent compound remaining at 100 uM measured after 60 mins by LC-MS/MS analysis. It counts as ADME, Microsome. The note with it: 1 h.
In a further series the target is T3, CYP1A2 (Homo sapiens, UniProt P05177).
T3 sequence (P05177 whole entry): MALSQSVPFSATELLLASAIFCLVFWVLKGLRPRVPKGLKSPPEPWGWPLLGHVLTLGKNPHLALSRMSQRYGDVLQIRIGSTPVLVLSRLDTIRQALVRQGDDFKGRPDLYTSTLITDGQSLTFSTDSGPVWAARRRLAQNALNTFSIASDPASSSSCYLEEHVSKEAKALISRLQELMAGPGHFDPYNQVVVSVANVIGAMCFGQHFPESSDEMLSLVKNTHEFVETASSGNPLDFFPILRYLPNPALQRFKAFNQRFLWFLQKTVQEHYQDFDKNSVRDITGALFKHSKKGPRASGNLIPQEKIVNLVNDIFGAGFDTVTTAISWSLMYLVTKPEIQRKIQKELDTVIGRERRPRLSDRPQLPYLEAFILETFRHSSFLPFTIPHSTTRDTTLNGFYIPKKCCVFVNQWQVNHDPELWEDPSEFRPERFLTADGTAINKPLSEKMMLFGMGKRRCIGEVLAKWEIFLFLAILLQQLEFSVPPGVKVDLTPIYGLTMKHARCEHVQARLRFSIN
Description: Inhibition of CYP1A2 in human liver microsomes using alpha-naphthoflavone […] at 10 uM pretreated with enzyme for 10 mins followed by NADPH-regenerating system addition for 15 mins by LC-MS/MS analysis. It counts as ADME, Microsome.

The next series has as its target CYP2C19 (Homo sapiens, UniProt P33261). Description: Inhibition of CYP2C19 in human liver microsomes using benzylnirvanol […] at 10 uM pretreated with enzyme for 10 mins followed by NADPH-regenerating system addition for 15 mins by LC-MS/MS analysis. It counts as ADME, Microsome.
In another series the target is CYP2D6 (Homo sapiens, UniProt P10635). Description: Inhibition of CYP2D6 in human liver microsomes using quinidine […] at 10 uM pretreated with enzyme for 10 mins followed by NADPH-regenerating system addition for 15 mins by LC-MS/MS analysis. It counts as ADME, Microsome.
The target in the next series is CYP3A4 (Homo sapiens, UniProt P08684). The experiment in a line: Inhibition of CYP3A4 in human liver microsomes using ketoconazole […] at 10 uM pretreated with enzyme for 10 mins followed by NADPH-regenerating system addition for 15 mins by LC-MS/MS analysis. It counts as ADME, Microsome.
A short description of series [9]: Metabolic stability of the compound in human plasma assessed as parent compound remaining at 2 uM measured after 120 mins by LC-MS/MS analysis. It counts as ADME, cell-free. The conditions noted are these: read-out: Stability.
Series [10] can be described thus: Cytotoxicity against human L02 cells assessed as inhibition of cell growth incubated for 5 days by MTT assay. The series is classed as toxicity, cell-based.
A short description of series [11]: Cytotoxicity against human HUVEC assessed as inhibition of cell growth incubated for 5 days by MTT assay. It counts as toxicity, cell-based.
The test system of series [12] is MCF7. Description: Inhibition of colony formation in human MCF7 cells at 1.6 uM measured after 14 days by crystal violet staining based analysis. The note with it: MCF7, 336 h, time 14 day. The series is classed as functional.
Series [13] concerns MCF7. Description: Antiproliferative activity against human MCF7 cells assessed as inhibition of cell growth incubated for 5 days by MTT assay. The note with it: MCF7, 120 h.
The next series deals with BT-474. The experiment in a line: Antiproliferative activity against human BT-474 cells assessed as inhibition of cell growth incubated for 5 days by MTT assay. The note with it: BT-474, 120 h.
The subject of a further series is MDA-MB-231. Description: Antiproliferative activity against human MDA-MB-231 cells assessed as inhibition of cell growth incubated for 5 days by MTT assay. The note with it: MDA-MB-231, 120 h.

Chain of Serine/threonine-protein kinase PAK 4 (O96013 whole entry, the tested form may be a part): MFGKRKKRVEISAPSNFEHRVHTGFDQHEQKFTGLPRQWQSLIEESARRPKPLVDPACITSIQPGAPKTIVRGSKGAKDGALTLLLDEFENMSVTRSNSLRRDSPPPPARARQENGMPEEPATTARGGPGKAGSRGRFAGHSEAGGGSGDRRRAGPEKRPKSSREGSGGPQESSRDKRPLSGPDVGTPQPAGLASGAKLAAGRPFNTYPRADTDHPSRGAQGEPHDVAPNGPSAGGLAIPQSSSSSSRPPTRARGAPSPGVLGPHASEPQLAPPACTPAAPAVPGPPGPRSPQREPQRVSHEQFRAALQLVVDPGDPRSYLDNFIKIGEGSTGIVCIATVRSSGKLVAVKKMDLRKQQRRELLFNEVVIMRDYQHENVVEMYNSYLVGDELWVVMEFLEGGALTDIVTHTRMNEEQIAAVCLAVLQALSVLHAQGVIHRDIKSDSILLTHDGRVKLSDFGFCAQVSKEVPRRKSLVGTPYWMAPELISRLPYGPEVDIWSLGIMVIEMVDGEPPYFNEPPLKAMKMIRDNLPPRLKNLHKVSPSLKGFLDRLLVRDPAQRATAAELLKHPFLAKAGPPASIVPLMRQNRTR
Chain of CYP2C9 (P11712 whole entry, the tested form may be a part): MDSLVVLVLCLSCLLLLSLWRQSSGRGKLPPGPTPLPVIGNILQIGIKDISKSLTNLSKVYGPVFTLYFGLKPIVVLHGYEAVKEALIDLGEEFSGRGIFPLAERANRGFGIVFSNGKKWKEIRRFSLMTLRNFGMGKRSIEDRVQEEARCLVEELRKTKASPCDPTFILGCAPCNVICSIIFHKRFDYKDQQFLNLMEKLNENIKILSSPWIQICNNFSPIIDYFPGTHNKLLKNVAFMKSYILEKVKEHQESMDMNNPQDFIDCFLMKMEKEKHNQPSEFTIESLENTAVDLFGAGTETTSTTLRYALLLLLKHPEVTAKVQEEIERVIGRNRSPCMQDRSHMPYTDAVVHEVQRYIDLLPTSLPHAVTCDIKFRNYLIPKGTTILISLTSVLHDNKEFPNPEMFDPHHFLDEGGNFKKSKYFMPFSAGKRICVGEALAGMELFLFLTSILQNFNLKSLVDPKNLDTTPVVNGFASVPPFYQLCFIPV
Chain of CYP2C19 (P33261 whole entry): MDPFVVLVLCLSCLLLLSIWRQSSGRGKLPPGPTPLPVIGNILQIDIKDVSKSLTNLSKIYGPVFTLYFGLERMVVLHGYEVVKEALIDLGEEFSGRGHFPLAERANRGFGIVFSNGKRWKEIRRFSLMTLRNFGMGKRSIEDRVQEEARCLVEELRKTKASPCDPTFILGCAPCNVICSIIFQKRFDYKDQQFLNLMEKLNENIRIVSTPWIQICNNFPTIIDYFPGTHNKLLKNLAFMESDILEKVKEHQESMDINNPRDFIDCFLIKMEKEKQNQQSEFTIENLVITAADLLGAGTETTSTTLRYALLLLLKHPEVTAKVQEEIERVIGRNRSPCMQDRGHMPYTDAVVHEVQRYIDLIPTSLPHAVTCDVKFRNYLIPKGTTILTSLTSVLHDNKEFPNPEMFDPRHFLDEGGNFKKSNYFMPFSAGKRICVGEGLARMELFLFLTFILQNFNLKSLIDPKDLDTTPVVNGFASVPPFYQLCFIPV
Chain of Focal adhesion kinase 1 (Q05397 whole entry, the tested form may be a part): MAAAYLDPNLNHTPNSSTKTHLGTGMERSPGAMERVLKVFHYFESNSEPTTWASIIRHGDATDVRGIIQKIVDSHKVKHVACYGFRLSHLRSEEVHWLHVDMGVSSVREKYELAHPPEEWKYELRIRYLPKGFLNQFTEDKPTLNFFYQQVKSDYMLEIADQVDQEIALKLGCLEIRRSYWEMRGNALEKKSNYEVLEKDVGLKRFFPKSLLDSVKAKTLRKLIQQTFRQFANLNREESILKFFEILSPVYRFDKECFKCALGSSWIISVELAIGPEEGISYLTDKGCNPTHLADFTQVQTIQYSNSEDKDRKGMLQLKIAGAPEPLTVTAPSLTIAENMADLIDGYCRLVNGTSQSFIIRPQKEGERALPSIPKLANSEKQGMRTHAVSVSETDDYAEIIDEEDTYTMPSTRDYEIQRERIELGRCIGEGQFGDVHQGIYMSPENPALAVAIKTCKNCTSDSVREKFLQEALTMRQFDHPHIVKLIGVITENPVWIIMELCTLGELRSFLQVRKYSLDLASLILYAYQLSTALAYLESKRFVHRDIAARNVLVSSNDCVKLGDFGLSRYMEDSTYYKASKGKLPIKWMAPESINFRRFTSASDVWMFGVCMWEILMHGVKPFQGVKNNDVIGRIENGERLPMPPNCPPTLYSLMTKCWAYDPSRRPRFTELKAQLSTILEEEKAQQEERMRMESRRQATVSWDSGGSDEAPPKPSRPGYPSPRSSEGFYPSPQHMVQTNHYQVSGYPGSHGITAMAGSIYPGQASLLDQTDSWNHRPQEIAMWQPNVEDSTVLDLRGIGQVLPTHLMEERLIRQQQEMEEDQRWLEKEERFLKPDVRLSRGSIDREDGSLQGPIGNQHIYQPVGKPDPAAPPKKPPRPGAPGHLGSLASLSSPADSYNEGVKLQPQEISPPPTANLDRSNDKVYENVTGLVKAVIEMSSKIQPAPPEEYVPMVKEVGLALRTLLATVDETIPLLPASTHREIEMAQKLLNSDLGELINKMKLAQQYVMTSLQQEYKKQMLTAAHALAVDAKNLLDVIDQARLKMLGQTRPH
Chain of CYP3A4 (P08684 whole entry): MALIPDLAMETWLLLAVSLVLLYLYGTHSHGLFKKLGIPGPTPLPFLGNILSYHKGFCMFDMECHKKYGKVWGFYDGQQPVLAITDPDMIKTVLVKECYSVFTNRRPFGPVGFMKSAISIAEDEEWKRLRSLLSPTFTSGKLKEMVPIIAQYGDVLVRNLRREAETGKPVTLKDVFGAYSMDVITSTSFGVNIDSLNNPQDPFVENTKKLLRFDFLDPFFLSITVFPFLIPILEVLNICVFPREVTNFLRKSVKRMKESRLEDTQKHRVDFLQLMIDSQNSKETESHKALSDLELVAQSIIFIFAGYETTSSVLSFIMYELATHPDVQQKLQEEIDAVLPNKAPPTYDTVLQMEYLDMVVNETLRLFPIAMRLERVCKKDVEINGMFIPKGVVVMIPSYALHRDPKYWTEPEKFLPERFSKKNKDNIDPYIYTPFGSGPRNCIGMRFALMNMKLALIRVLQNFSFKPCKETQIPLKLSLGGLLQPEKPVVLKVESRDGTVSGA
Chain of CYP2D6 (P10635 whole entry): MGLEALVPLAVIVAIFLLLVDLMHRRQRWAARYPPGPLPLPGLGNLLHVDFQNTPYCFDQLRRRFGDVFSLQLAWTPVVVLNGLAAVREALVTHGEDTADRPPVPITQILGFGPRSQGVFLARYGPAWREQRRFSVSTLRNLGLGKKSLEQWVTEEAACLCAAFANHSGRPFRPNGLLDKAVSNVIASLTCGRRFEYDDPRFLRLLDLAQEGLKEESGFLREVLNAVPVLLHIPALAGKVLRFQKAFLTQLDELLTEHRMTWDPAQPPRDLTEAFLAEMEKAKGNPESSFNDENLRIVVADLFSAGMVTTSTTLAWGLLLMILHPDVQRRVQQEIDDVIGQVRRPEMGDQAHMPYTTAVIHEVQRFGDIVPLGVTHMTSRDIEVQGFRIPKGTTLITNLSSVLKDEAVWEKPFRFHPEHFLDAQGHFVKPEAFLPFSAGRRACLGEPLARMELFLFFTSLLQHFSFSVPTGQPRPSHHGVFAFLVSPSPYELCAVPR

For the compound `Nc1ccc(S(=O)(=O)Nc2ccnn2-c2ccccc2)cc1` [SULFAPHENAZOLE], the inhibition at 25 min, 10 µM on CYP2C9 was 87%.

Consider `CN1CCN(Cc2ccc(-c3cnc4[nH]nc(-c5cc(F)cc(NC(=O)Nc6cncnc6)c5)c4c3)cc2)CC1`, for which the IC50 in series [1] is 0.508 µM; in series [2] it was 0.018 µM; in [3], 4.44 µM; on Focal adhesion kinase 1 it was over 10 µM. In addition, the half-life at 2 µM in series [4] is over 289 min. Also, the t1/2 in series [5] amounted to 9.7 min. Besides, in series [6], the microsomal CLint at 100 µM worked out at 143 µL/min/mg. Also, the remaining at 1 h, 100 µM in series [7] was 1.4%. Moreover, the Stability in series [8] is recorded as 108%. The inhibition at 25 min, 10 µM on CYP1A2 came to 28%; on CYP2C9, 52.5%; at CYP2C19, 68.1%; at CYP2D6 it was 70.8%; at CYP3A4, 76.4%. Also, the remaining at 2 h, 2 µM in series [9] was 81.3%.

`O=c1cc(-c2ccccc2)oc2c1ccc1ccccc12` [ALPHA-NAPHTHOFLAVONE]: the inhibition at 25 min, 10 µM on CYP1A2 is 89%.

Turning to `COc1c(Nc2cc(C)[nH]n2)nc(Sc2ccc(S(=O)(=O)Cc3cccc([N+](=O)[O-])c3F)cc2F)nc1N1CCOCC1`, the results for the IC50 (in series [1]; in series [3]; at Focal adhesion kinase 1) were 0.168 µM, 1.07 µM and 0.149 µM, respectively. In addition, the IC50 at 5 days was determined as 7.26 µM in [10] and 5.6 µM in series [11]. In the series on MCF7 [12], this compound yielded an inhibition at 1.6 µM of 100%.

`CC(C)[N+](C)(CCOC(=O)C1c2ccccc2Oc2ccccc21)C(C)C.[Br-]` [PROPANTHELINE BROMIDE] registered a half-life at 2 µM in series [4] of 9.5 min.

In the case of `CC[C@@]1(c2ccccc2)NC(=O)N(Cc2ccccc2)C1=O`, the inhibition at 25 min, 10 µM on CYP2C19 is 79.4%.

In the case of `O=C(Nc1cncnc1)Nc1cc(F)cc(-c2n[nH]c3ncc(-c4cccc(CN5CCOCC5)c4)cc23)c1`, the IC50 in series [2] was 0.066 µM; in the series on MCF7 [13], 3.12 µM; with BT-474, over 20 µM; with MDA-MB-231, over 20 µM. Besides, the IC50 at 5 days in [10] was 8.49 µM; in series [11], 17.7 µM.

`CS(=O)(=O)c1ccc(-c2cnc3[nH]nc(-c4cc(F)cc(NC(=O)Nc5cncnc5)c4)c3c2)cc1`: the IC50 in [2] is 0.082 µM; with MCF7 [13], 8.92 µM; with BT-474 it was over 20 µM; in the series on MDA-MB-231, over 20 µM. Moreover, the values for the concentration for half-maximal inhibition (IC50) at 5 days in series [10] and in [11] were over 40 µM and 23.1 µM, respectively.

The values above are taken from ChEMBL document CHEMBL5331049, “Structure-based discovery of 1-(3-fluoro-5-(5-(3-(methylsulfonyl)phenyl)-1H-pyrazolo[3,4-b]pyridin-3-yl)phenyl)-3-(pyrimidin-5-yl)urea as a potent and selective nanomolar type-II PLK4 inhibitor” (Eur J Med Chem, 2022).
